Measurements: US20130245116A1, “COMPOSITIONS AND METHODS FOR THE DISRUPTION OF MYCOBACTERIUM BIOFILM” (priority 2011, published 2013)

Tested on: M. smegmatis mc^2155 biofilm
Experiment: Assay for M. smegmatis biofilm inhibition (pellicle formation in M63 medium)
Format: cell-based
Procedure: Two ml of 7H9/ADC culture medium was inoculated with […] of a starter culture of M. smegmatis mc^2155 in 40% glycerol and incubated at 37° C. without shaking for 16-24 hr. This culture was transferred into 10 ml of GAS medium and incubated in the incubator/shaker at 37° C. to an absorbance at 650 nm of <1.5, diluted to an absorbance of 0.02-0.03 in M63 culture medium. Then aliquots of 2.0 ml of this inoculated M63 medium were placed in sterile 1.5×10-cm glass tubes and the purified compounds to be tested were added. The test tubes were incubated in the heat block at 37° C. for 3 to 7 days. Pellicles began to form at the air-liquid interface of control culture on day-2, the pellicle thickened and cells began climbing up the surface of the glass. Such pellicles are recognized as biofilm. In the biofilm inhibition assay, the purified compounds dissolved in CM (2:1) were added at zero time and the development of biofilm was recorded on day-3 and -4.
In the biofilm inhibition assay, control culture began developing a smooth surface growth after two days and the cells began to climb up the wall of the tube. The surface growth continued and thickened over days-4 and -5. There was no observable submerged growth in the M63 medium over this period. […] After this period, rough surface pellicles began to appear along with some submerged growth (planktonic growth).

Trehalose monomycolate [TMM, reference compound]
biological activity in M. smegmatis biofilm inhibition assay (concentration not given): not active

C16:3-fatty acyl-/C25-mycocerosyl-phthiotriol diester
concentration for complete inhibition of M. smegmatis biofilm formation: 12.5 µg/mL
